This note sets out measurements from paper PMC12040169 (PLOS Biology, 2025).

By viability is commonly meant a read-out of living cells in per cent, often relative to untreated cells.

This series can be described thus: in vitro. The following applies: human, hela cells, % viability.
Take `CC1(C)CC(=O)c2sc(NC(=O)C3CC3)nc2C1` [CBK287329]: the viability at 28.5 h, 10 µM is 104%.

For the compound `O=C(Nc1nc2c(s1)CCc1ccccc1-2)C1CC1` [CBK287330], the viability at 28.5 h, 10 µM turned out to be 85.3%.

As for `Cc1ccccc1-c1nnc(NC(=O)c2ccc(N3C(=O)CCC3=O)cc2)s1` [CBK287332], the viability at 28.5 h, 10 µM amounted to 85.9%.

For the compound `O=C(Nc1nc(-c2ccccc2)cs1)c1ccc(N2C(=O)CCC2=O)cc1` [CBK287333], the viability at 28.5 h, 10 µM came to 97.7%.

Consider `Cc1ccc2nc(NC(=O)COc3ccccc3)sc2c1` [CBK287335], for which the viability at 28.5 h, 10 µM came to 91%.

As for `Cc1ccccc1C(=O)Nc1nc2ccc(S(C)(=O)=O)cc2s1` [CBK287337], the viability at 28.5 h, 10 µM was 95.1%.

Regarding `COc1ccc(C(=O)Nc2nc3ccc(S(C)(=O)=O)cc3s2)cc1` [CBK287338], the viability at 28.5 h, 10 µM came out at 94.3%.

As for `CS(=O)(=O)c1ccc2nc(NC(=O)Cc3ccccc3)sc2c1` [CBK287339], the viability at 28.5 h, 10 µM worked out at 89.8%.

On to `CS(=O)(=O)c1ccc2nc(NC(=O)c3ccco3)sc2c1` [CBK287341], for which the viability at 28.5 h, 10 µM turned out to be 95.4%.

With `COc1cccc(C(=O)Nc2nc3ccc(F)cc3s2)c1` [CBK287342], the viability at 28.5 h, 10 µM stood at 86.9%.

Turning to `C=CCSc1nc2sc3c(c2c(=O)[nH]1)CCCC3` [CBK287344], the viability at 28.5 h, 10 µM worked out at 110%.

For the compound `Cc1ccc(-c2csc(NC(=O)CN3C(=O)CCC3=O)n2)cc1` [CBK287346], the viability at 28.5 h, 10 µM was determined as 98.3%.

For `CCc1ccc(-c2csc(NC(=O)CN3C(=O)CCC3=O)n2)cc1` [CBK287347], the viability at 28.5 h, 10 µM amounted to 90.3%.

On to `Cc1ccc(-c2csc(NC(=O)CN3C(=O)CCC3=O)n2)c(C)c1` [CBK287348], for which the viability at 28.5 h, 10 µM stood at 86.7%.

For the compound `Cc1cc(NC(=O)c2cccc(N3C(=O)CCC3=O)c2)no1` [CBK287352], the viability at 28.5 h, 10 µM amounted to 112%.

As for `O=C(Nc1ccccn1)c1cc2ccccc2oc1=O` [CBK287354], the viability at 28.5 h, 10 µM was determined as 91.7%.

Consider `Clc1ccc(Nc2ncnc3c2cnn3-c2ccc(Cl)cc2)cc1` [CBK287356], for which the viability at 28.5 h, 10 µM was 86.1%.

Turning to `c1ccc(-n2ncc3c(N4CCCC4)ncnc32)cc1` [CBK287357], the viability at 28.5 h, 10 µM was 86.6%.

As to `COc1ccccc1-c1nnc(NC(=O)Cc2cccs2)s1` [CBK287361], the viability at 28.5 h, 10 µM was determined as 93.5%.

As to `CC(=O)N1CCN(c2nc3ccccc3s2)CC1` [CBK287362], the viability at 28.5 h, 10 µM turned out to be 95%.

With `CC(=O)c1ccc(C(=O)Nc2nc3c(s2)COc2ccccc2-3)cc1` [CBK287363], the viability at 28.5 h, 10 µM worked out at 81.9%.

Take `Cc1cccc2sc(NC(=O)C3COc4ccccc4O3)nc12` (stereo not drawn) [CBK287367]: the viability at 28.5 h, 10 µM was determined as 113%.

Regarding `NC(=O)c1c(NC(=O)c2ccc3ncsc3c2)sc2c1CCCC2` [CBK287369], the viability at 28.5 h, 10 µM is 94.4%.

Regarding `O=C(Nc1nc(-c2ccncc2)cs1)C1COc2ccccc2O1` (stereo not drawn) [CBK287370], the viability at 28.5 h, 10 µM amounted to 96.7%.

Regarding `Cc1ccccc1NC(=O)c1cnc2n(c1=O)CCS2` [CBK287374], the viability at 28.5 h, 10 µM came out at 110%.

As for `Cc1ccc(NC(=O)c2cnc3n(c2=O)CCS3)cc1` [CBK287376], the viability at 28.5 h, 10 µM turned out to be 108%.

Consider `O=C(Nc1cccc2c1CCCC2)c1cnc2n(c1=O)CCS2` [CBK287379], for which the viability at 28.5 h, 10 µM turned out to be 105%.

With `O=C(Nc1ccc(Cl)c(Cl)c1)c1cnc2n(c1=O)CCS2` [CBK287381], the viability at 28.5 h, 10 µM was determined as 108%.

Take `CCN(C(=O)c1cnc2n(c1=O)CCS2)c1ccccc1` [CBK287384]: the viability at 28.5 h, 10 µM was determined as 103%.

For the compound `Fc1ccc(N2CCN(c3ncnc4[nH]cnc34)CC2)cc1` [CBK287387], the viability at 28.5 h, 10 µM was determined as 89.8%.

Turning to `Cc1cc(NC(=O)CSc2nnc(-c3ccccc3)o2)no1` [CBK287389], the viability at 28.5 h, 10 µM worked out at 96.2%.

For `COc1ccccc1-c1nnc(SCC(=O)Nc2nccs2)o1` [CBK287390], the viability at 28.5 h, 10 µM came out at 107%.

In the case of `COc1cccc(-c2nnc(SCC(=O)Nc3cc(C)on3)o2)c1` [CBK287391], the viability at 28.5 h, 10 µM was 89.9%.

Take `CCc1nnc(NC(=O)CSc2ncnc3c2oc2ccccc23)s1` [CBK287392]: the viability at 28.5 h, 10 µM worked out at 90.7%.

As to `O=C(CSc1ncnc2c1oc1ccccc12)Nc1ccccc1F` [CBK287393], the viability at 28.5 h, 10 µM was determined as 87.3%.

Regarding `Cc1cc(C)cc(NC(=O)CSc2ncnc3c2oc2ccccc23)c1` [CBK287394], the viability at 28.5 h, 10 µM amounted to 90.5%.

For the compound `c1ccc(CSc2ncnc3c2oc2ccccc23)cc1` [CBK287398], the viability at 28.5 h, 10 µM came out at 103%.

Take `O=C(CSc1nccn1-c1ccccc1)Nc1ccc(F)cc1` [CBK287399]: the viability at 28.5 h, 10 µM was 76.1%.

Take `COc1ccc(OC)c2sc(NC(=O)c3ccc(Br)s3)nc12` [CBK287400]: the viability at 28.5 h, 10 µM was 93.7%.

As for `O=C(Nc1nnc(-c2ccc3c(c2)OCCO3)o1)c1ccc2c(c1)OCCO2` [CBK287403], the viability at 28.5 h, 10 µM worked out at 84.5%.

As for `CCC(=O)Nc1nnc(-c2ccc3c(c2)OCCO3)o1` [CBK287404], the viability at 28.5 h, 10 µM amounted to 92.6%.

Regarding `O=C(Nc1nnc(C2=COCCO2)o1)c1ccc(-c2ccccc2)cc1` [CBK287407], the viability at 28.5 h, 10 µM was 84.5%.

On to `COc1ccc(C(=O)Nc2nnc(C3=COCCO3)o2)cc1` [CBK287409], for which the viability at 28.5 h, 10 µM turned out to be 93.9%.

For the compound `N#Cc1ccc(C(=O)Nc2nnc(C3=COCCO3)o2)cc1` [CBK287411], the viability at 28.5 h, 10 µM was 83.3%.

With `CN(C)c1ccc(C(=O)Nc2nnc(C3=COCCO3)o2)cc1` [CBK287415], the viability at 28.5 h, 10 µM was 98.8%.

For `O=C(Cc1ccccc1)Nc1nnc(C2=COCCO2)o1` [CBK287416], the viability at 28.5 h, 10 µM stood at 92.2%.

As for `O=C(Nc1nnc(C2=COCCO2)o1)c1cccc(Cl)c1` [CBK287417], the viability at 28.5 h, 10 µM stood at 83.5%.

`O=C(Nc1nnc(-c2ccco2)o1)c1ccc(N2C(=O)CCC2=O)cc1` [CBK287423]: the viability at 28.5 h, 10 µM is 90.7%.

As to `O=C(Nc1nnc(-c2ccco2)o1)c1ccc2c(c1)CCCC2` [CBK287425], the viability at 28.5 h, 10 µM came to 79.1%.

With `O=C(CN1C(=O)CCC1=O)Nc1nnc(-c2ccc3c(c2)CCCC3)o1` [CBK287427], the viability at 28.5 h, 10 µM stood at 80.2%.

With `O=C(Nc1nnc(-c2ccccn2)o1)c1cc(Cl)ccc1Cl` [CBK287429], the viability at 28.5 h, 10 µM turned out to be 96.9%.

For the compound `O=C(Nc1nnc(-c2ccncc2)o1)c1ccc(F)cc1` [CBK287431], the viability at 28.5 h, 10 µM turned out to be 80%.

In the case of `O=C(Nc1nnc(-c2ccncc2)o1)c1ccc(Cl)cc1Cl` [CBK287433], the viability at 28.5 h, 10 µM amounted to 82.3%.

In the case of `Cc1cc(NC(=O)COc2ccccc2)nc2c1c(=O)oc1ccccc12` [CBK287436], the viability at 28.5 h, 10 µM was 99.8%.

As to `COc1cccc(C(=O)Nc2cc(C)c3c(=O)oc4ccccc4c3n2)c1OC` [CBK287437], the viability at 28.5 h, 10 µM came out at 106%.

Take `Cc1cc(NC(=O)c2cccs2)nc2c1c(=O)oc1ccccc12` [CBK287439]: the viability at 28.5 h, 10 µM amounted to 91.8%.

Regarding `Cc1cc(NC(=O)C(C)C)nc2c1c(=O)oc1ccccc12` [CBK287441], the viability at 28.5 h, 10 µM is 89.7%.

Turning to `COc1ccc(C(=O)Nc2cc(C)c3c(=O)oc4ccccc4c3n2)cc1OC` [CBK287442], the viability at 28.5 h, 10 µM was 89%.

In the case of `Cc1cc(NC(=O)CC(C)(C)C)nc2c1c(=O)oc1ccccc12` [CBK287444], the viability at 28.5 h, 10 µM amounted to 101%.

Turning to `Cc1cc(NC(=O)c2cc3ccccc3oc2=O)nc2c1c(=O)oc1ccccc12` [CBK287445], the viability at 28.5 h, 10 µM was found to be 100%.

Consider `Cc1ccccc1NC(=O)c1cnc2sccn2c1=O` [CBK287447], for which the viability at 28.5 h, 10 µM worked out at 74.9%.

As for `O=C(Nc1ccc(Cl)c(Cl)c1)c1cnc2sccn2c1=O` [CBK287449], the viability at 28.5 h, 10 µM turned out to be 83.3%.

Turning to `Cc1ccc(C)c(NC(=O)c2cnc3sccn3c2=O)c1` [CBK287451], the viability at 28.5 h, 10 µM came to 85.1%.

As to `CCN(C(=O)c1cnc2scc(C)n2c1=O)c1ccccc1` [CBK287452], the viability at 28.5 h, 10 µM was 105%.

Consider `Cc1ccc(NC(=O)c2cnc3scc(C)n3c2=O)cc1` [CBK287454], for which the viability at 28.5 h, 10 µM was 107%.

On to `Cc1csc2ncc(C(=O)Nc3ccc(OC(F)(F)F)cc3)c(=O)n12` [CBK287457], for which the viability at 28.5 h, 10 µM was 108%.

On to `Cc1csc2ncc(C(=O)Nc3ccccc3C#N)c(=O)n12` [CBK287458], for which the viability at 28.5 h, 10 µM was determined as 95.3%.

With `Cc1csc2ncc(C(=O)Nc3ccc(Cl)c(Cl)c3)c(=O)n12` [CBK287459], the viability at 28.5 h, 10 µM turned out to be 104%.

On to `Cc1ccc(NC(=O)c2cnc3scc(C)n3c2=O)cc1C` [CBK287461], for which the viability at 28.5 h, 10 µM is 108%.

On to `Cc1c(Cl)cccc1NC(=O)c1cnc2scc(C)n2c1=O` [CBK287463], for which the viability at 28.5 h, 10 µM was found to be 117%.

In the case of `Cc1ccc(Cl)cc1NC(=O)c1cnc2scc(C)n2c1=O` [CBK287464], the viability at 28.5 h, 10 µM was determined as 98.7%.

Turning to `Cc1csc2ncc(C(=O)Nc3cc(C(F)(F)F)ccc3Cl)c(=O)n12` [CBK287465], the viability at 28.5 h, 10 µM came to 94.4%.

Turning to `O=C(CCn1c(=O)oc2ccccc21)Nc1ccncc1` [CBK287466], the viability at 28.5 h, 10 µM turned out to be 92.5%.

As for `COc1cccc2sc(Nc3nc4ccc(NC(C)=O)cc4s3)nc12` [CBK287468], the viability at 28.5 h, 10 µM stood at 94.9%.

Turning to `COc1cccc2sc(Nc3nc4ccc(S(C)(=O)=O)cc4s3)nc12` [CBK287472], the viability at 28.5 h, 10 µM came to 104%.

Turning to `COc1cccc2sc(Nc3nnc(-c4cccs4)o3)nc12` [CBK287473], the viability at 28.5 h, 10 µM amounted to 85.4%.

Turning to `CCOc1cccc2sc(Nc3nc4ccc(NC(C)=O)cc4s3)nc12` [CBK287474], the viability at 28.5 h, 10 µM was determined as 90.8%.

For `CC(=O)Nc1ccc2nc(Nc3nc4c(F)cccc4s3)sc2c1` [CBK287475], the viability at 28.5 h, 10 µM was 89.8%.

With `CS(=O)(=O)c1ccc2nc(Nc3nc4c(F)cccc4s3)sc2c1` [CBK287478], the viability at 28.5 h, 10 µM came out at 101%.

Turning to `COc1ccc2nc(Nc3nc(-c4cccnc4)cs3)sc2c1` [CBK287482], the viability at 28.5 h, 10 µM is 89.1%.

For the compound `COc1ccc2nc(Nc3nc(C)c(C(C)=O)s3)sc2c1` [CBK287483], the viability at 28.5 h, 10 µM was 94.8%.

For the compound `COc1ccc2nc(NCc3ccccc3)sc2c1` [CBK287485], the viability at 28.5 h, 10 µM was 66.8%.

Take `COc1ccc2nc(Nc3nnc(-c4ccco4)o3)sc2c1` [CBK287486]: the viability at 28.5 h, 10 µM stood at 102%.

In the case of `Fc1ccc2nc(Nc3nc(-c4ccncc4)cs3)sc2c1` [CBK287487], the viability at 28.5 h, 10 µM worked out at 105%.
